Data: US8501911B2, “Methods of reducing inflammation and mucus hypersecretion” (Biomarck Pharmaceuticals, Ltd, priority 1999, dated 2013)
Where two headings read alike, the source gives them in different places. Residues, ends and D or L forms follow the SMILES beside them. *: point of attachment. Myristoyl = CCCCCCCCCCCCCC(=O)*

Experiments:
[1] = tested on: NHBE cells; test: UTP-induced mucin secretion from NHBE cells (ELISA); assay type: cell-based, human; conditions: for Mucin secretion, % of control levels: co-incubation with 0.1 mM UTP 45 min
Procedure: In Results-I-1D, NHBE cells were preincubated with the indicated inhibitor for 15 min and then stimulated with 100 μM UTP for 2 h. Secreted mucin in response to the treatment was collected and assayed by ELISA. Data are presented as mean±S.E. (n=6 at each point).
UTP is a well defined pathophysiologically relevant mucin secretagogue. Lethem ct al., Am. J. Respir. Cell Mol. Biol. 9, 315-322 (1993). […] To determine whether PKC and PKG were involved in regulation of mucin secretion in response to a pathophysiological stimulus, effects of PKC/PKG inhibitors on UTP-induced mucin secretion were investigated. NHBE cells were preincubated with various inhibitors for 15 min and then exposed to UTP (100 μM) plus the inhibitor for 2 h. The secreted mucin was measured by ELISA. […] Apparently, mucin secretion in NHBE cells may be regulated by a signaling mechanism involving both PKC and PKG.
Peptide Blocking Studies—NHBE cells were preincubated with either the MANS or the RNS peptide (1-100 μM) for 15 min, and then PMA (100 nM)+8-Br-cGMP (1 μM) or UTP (100 μM) was added, and cells were incubated for an additional 15 min or 2 h. respectively. Mucin secretion was measured by ELISA and experimental results are designated as Results-I-2B-1 and Results-I-2B-2, as follows.
PP2A is an essential component of the mucin secretory pathway. NHBE cells were preincubated with the indicated concentration of fostriecin, okadaic acid (500 nM), or medium alone for 15 min and then stimulated with PMA (100 nM)+8-Br-cGMP (1 μM) for 15 min or with UTP (100 μM) for 2 h. Secreted mucin was measured by ELISA. […] Thus, dephosphorylation of MARCKS by a PKG-activated PP2A appears to be an essential component of the signaling pathway leading to mucin granule exocytosis.
Measurement of Mucin Secretion by ELISA—Before collection of “base line” and “test” mucin samples, the accumulated mucus at the apical surface of the cells was removed by washing with phosphate-buffered saline, pH 7.2. To collect the base-line secretion, cells were incubated with medium alone, and secreted mucin in the apical medium was collected and reserved. Cells were rested for 24 h and then exposed to medium containing the selected stimulatory and/or inhibitory reagents (or appropriate controls), after which secreted mucin was collected and reserved as the test sample. Incubation times for the base line and the test were the same but varied depending on the test reagent utilized. Both base line and test secretions were analyzed by ELISA using an antibody capture method as known in the art. See, e.g., Harlow et al., Antibodies: A Laboratory Manual, pp. 570-573, Cold Spring Harbor Laboratory, Cold Spring Harbor, N.Y. (1988). The primary antibody for this assay was 17Q2 (Babco, Richmond, Calif.), a monoclonal antibody that reacts specifically with a carbohydrate epitope on human airway mucins. The ratio of test/base-line mucin, which is similar to a “secretory index”, was used to quantify mucin secretion, allowing each culture dish to serve as its own control and thus, minimizing deviation caused by variability among culture wells. Wright et al., Am. J. Physiol. 271, L854-L861 (1996). Levels of mucin secretion were reported as percentage of the medium control.
These experiments were carried out similarly to those described in Example 7. To test for stimulated secretion, the cells were exposed apically and basolaterally to uridine 5′-triphosphate (UTP) at a concentration of 0.1 mM in media. Cells were pre-incubated for 15 minutes with the MANS peptide and test cultures were then co-incubated with the MANS peptide and UTP for 45 minutes.
NHBE cells were pre-incubated with okadaic acid (500 nM) for 15 min at 37° C./5% CO2, then stimulated with PMA (100 nM)+8-Br-cGMP (1 μM) for 15 min, or with UTP (0.1 mM) for 2 hours. Secreted mucin in the apical medium was collected and assayed by ELISA. […]

[2] = tested on: U937 cells; test: Inhibition of lysozyme release from U937 cells; assay type: cell-based, human; conditions: for % Inhibition Lysozyme: at 50 μM of test peptide, 100 nM PMA; for Effect on PMA stimulated lysozyme secretion: pre-incubation with 50 to 100 μM (RNS: any time point or concentration tested)
Procedure: U937 is a monocyte-like human cell line which was purchased from American Type Culture Collection (ATCC) Rockville, Md. (catalog #CRL-15932). The cells were maintained in medium consisting of RPMI 1640 with glutamine supplemented with 10% heat inactivated fetal bovine serum (Gibco, Carlsbad, Calif.), 50 IU/mL, penicillin, 50 μg/mL streptomycin at 37° C. in an atmosphere containing 5% CO2. U937 cells were washed and resuspended at 2.5×10^6 cells/mL in phenol red free RPMI-1640 medium (Cellgro, Mediatech Inc.). Aliquots of cells in 15 mL plastic tubes were preincubated with indicated concentrations of test peptides (dissolved in PBS, pH 7.0) for 10 min at 37° C. The cells were then stimulated with 100 nM PMA for 1 hour. The cells were then centrifuged at 400×g for 5 min at 4° C. Lysozyme released from U937 cells was measured using spectrophotometric assay as described previously by Ralph et al., 1976. (Ralph P, Moore M A S, and Nilsson K. Lysozyme synthesis by established human and murine histocytic lymphoma cell lines. J. Exp. Med. 143:1528-33, 1976). Briefly. 100 μL of supernatants were placed in a 96-well microtiter plate and mixed with 100 μL of a Micrococcus lysodeikticus (Sigma-Aldrich) suspension (0.3 mg/mL in 0.1 M sodium phosphate buffer, pH 7.0), incubated for […] at room temperature and decrease in absorbance at 450 nm was measured. Chicken egg white lysozyme (EMD Biosciences) was used as a standard.

[3] = tested on: MARCKS-related mucus secretion; test: Inhibition of MARCKS-related mucus (mucin) secretion, Table 1; assay type: cell-based; conditions: at 100 μM of test peptide
[4] = tested on: NK-92 cells; test: Inhibition of release of granzyme from NK-92 cells; assay type: cell-based, human; conditions: for % Inhibition Granzyme: at 50 μM of test peptide
Procedure: Measurement of NK cell granzyme secretion: Granzyme secreted from NK-92 cells was assayed by measuring hydrolysis of Nα-benzyloxycarbonyl-L-lysine thiobenzyl ester (BLT, EMD Bioscience, Inc.) essentially as described previously (Takayama H. Trenn G, Sitkovsky M V. A novel cytotoxic T lymphocyte activation assay. J. Immunol. Methods 104:183-190, 1987). An aliquot of 50 μl of supernatant was transferred to a 96-well plate, and 150 μl of 0.2 mM solution of BLT and 0.22 mM DTNB (Sigma-Aldrich Co.) in phosphate-buffered saline (PBS, pH 7.2) was added to the supernatant. Absorbance at 410 nm was measured after incubation for 30 min at room temperature. Results were expressed as percentage of total cellular enzyme content, using the amount obtained in the same number of triton X-100-lysed cells.
Because standard granzyme from NK-92 cells was not available to use for quantification, we measured both released and intracellular (from lysed cells) levels of granzyme, and expressed the released granzyme as a percentage of total (intracellular and released) for each. To measure intracellular granzyme from NK-92 cells, appropriate aliquots of 0.1% triton X-100-lysed cells were taken for quantification of the enzyme as described above. All data are expressed as percentage of control to minimize variability between cultures.

[5] = peptide 1 μM, 15 min preincubation, then UTP 100 μM 2 h
[6] = peptide 100 μM, 15 min preincubation, then UTP 100 μM 2 h
[7] = test agent 10 μM, 15 min preincubation, then UTP 100 μM 2 h

CCCCCCCCCCCCCC(=O)NCC(=O)N[C@@H](C)C(=O)N[C@@H](CCC(N)=O)C(=O)N[C@@H](Cc1ccccc1)C(=O)N[C@@H](CO)C(=O)N[C@@H](CCCCN)C(=O)N[C@H](C(=O)N[C@@H](C)C(=O)N[C@@H](C)C(=O)N[C@@H](CCCCN)C(=O)NCC(=O)N[C@@H](CCC(=O)O)C(=O)N[C@@H](C)C(=O)N[C@@H](C)C(=O)N[C@@H](C)C(=O)N[C@@H](CCC(=O)O)C(=O)N[C@@H](CCCNC(=N)N)C(=O)N1CCC[C@H]1C(=O)NCC(=O)N[C@@H](CCC(=O)O)C(=O)N[C@@H](C)C(=O)N[C@@H](C)C(=O)N[C@H](C(=O)N[C@@H](C)C(=O)O)C(C)C)[C@@H](C)O [MANS peptide] (Myristoyl-GAQFSKTAAKGEAAAERPGEAAVA-OH; C-terminus assumed)
Mucin secretion as % of the level observed with 0.1 mM UTP absent MANS peptide ([1]; peptide 1 μM): about 90%
Mucin secretion, % of control levels ([1]; peptide 1 μM, 15 min preincubation): 146%
Mucin secretion as percent of control [1, 5]: 143%
Mucin secretion as % of the level observed with 0.1 mM UTP absent MANS peptide ([1]; peptide 10 μM): about 80%
Mucin secretion, % of control levels ([1]; peptide 10 μM, 15 min preincubation): 128%
Mucin secretion as % of the level observed with 0.1 mM UTP absent MANS peptide ([1]; peptide 100 μM): about 29%
Mucin secretion, % of control levels ([1]; peptide 100 μM, 15 min preincubation): 46%
Mucin secretion as percent of control [1, 6]: 46%
Mucin secretion as percent of control [1, 7]: 125%
% Inhibition Lysozyme [2]: 40.8%
Effect on PMA stimulated lysozyme secretion [2]: significantly attenuated
% Inhibition Mucin [3]: 81.5%
Reduction in granzyme secretion relative to the PMA control reference ([4]; 100 μM peptide, 100 nM PMA 2 hour): about 60%
% Inhibition Granzyme [4]: 76.0%

CCCCCCCCCCCCCC(=O)O[C@@H]1[C@@H](C)[C@@]2(O)[C@@H](C=C(CO)C[C@]3(O)C(=O)C(C)=C[C@@H]23)[C@@H]2C(C)(C)[C@]12OC(C)=O [PMA, phorbol 12-myristate 13-acetate]
Granzyme secretion relative to control as 100% ([4]; 100 nM PMA, 2 hour incubation): about 220%

CCCCCCCCCCCCCC(=O)NCC(=O)N[C@H](C(=O)N[C@@H](C)C(=O)N1CCC[C@H]1C(=O)N[C@@H](C)C(=O)N[C@@H](C)C(=O)N[C@@H](CCC(=O)O)C(=O)NCC(=O)N[C@@H](C)C(=O)NCC(=O)N[C@@H](C)C(=O)N[C@@H](CCC(=O)O)C(=O)N[C@H](C(=O)N[C@@H](CCCCN)C(=O)N[C@@H](CCCNC(=N)N)C(=O)N[C@@H](C)C(=O)N[C@@H](CO)C(=O)N[C@@H](C)C(=O)N[C@@H](CCC(=O)O)C(=O)N[C@@H](C)C(=O)N[C@@H](CCCCN)C(=O)N[C@@H](CCC(N)=O)C(=O)N[C@@H](C)C(=O)N[C@@H](Cc1ccccc1)C(=O)O)C(C)C)[C@@H](C)O [RNS peptide, reference compound] (Myristoyl-GTAPAAEGAGAEVKRASAEAKQAF-OH; C-terminus assumed)
Mucin secretion as percent of control [1, 5]: 154%
Mucin secretion as percent of control [1, 6]: 158%
Mucin secretion as percent of control [1, 7]: 155%
% Inhibition Lysozyme [2]: 0%
Effect on PMA stimulated lysozyme secretion [2]: did not affect
% Inhibition Mucin [3]: 0%
Effect on PMA-enhanced granzyme secretion ([4]; any of the time points or concentrations tested): did not affect
% Inhibition Granzyme [4]: 29.5%

CCCCCCCCCCCCCC(=O)NCC(=O)N[C@@H](C)C(=O)N[C@@H](CCC(N)=O)C(=O)N[C@@H](Cc1ccccc1)C(=O)N[C@@H](CO)C(=O)N[C@@H](CCCCN)C(=O)N[C@H](C(=O)N[C@@H](C)C(=O)N[C@@H](C)C(=O)N[C@@H](CCCCN)C(=O)NCC(=O)N[C@@H](CCC(=O)O)C(=O)O)[C@@H](C)O [SEQ ID NO: 13, N-myristoyl-GAQFSKTAAKGE] (Myristoyl-GAQFSKTAAKGE-OH; C-terminus assumed)
% Inhibition Lysozyme [2]: 85.2%
% Inhibition Mucin [3]: 77%

CCCCCCCCCCCCCC(=O)NCC(=O)N[C@@H](C)C(=O)N[C@@H](CCC(N)=O)C(=O)N[C@@H](Cc1ccccc1)C(=O)N[C@@H](CO)C(=O)N[C@@H](CCCCN)C(=O)N[C@H](C(=O)N[C@@H](C)C(=O)N[C@@H](C)C(=O)N[C@@H](CCCCN)C(=O)O)[C@@H](C)O [SEQ ID NO: 15, N-myristoyl-GAQFSKTAAK] (Myristoyl-GAQFSKTAAK-OH; C-terminus assumed)
% Inhibition Lysozyme [2]: 56.6%
% Inhibition Mucin [3]: 67.5%

C[C@@](O)(/C=C/[C@H]1CC=CC(=O)O1)[C@@H](C[C@@H](O)\C=C/C=C\C=C\CO)OP(=O)(O)O [fostriecin]
activity at 0.01 µM ([1]; Homo sapiens, NHBE, inhibitor 10 nM, 15 min preincubation, then UTP 100 μM 2 h, read-out: Mucin secretion as percent of control): 152%
activity at 0.1 µM ([1]; Homo sapiens, NHBE, inhibitor 100 nM, 15 min preincubation, then UTP 100 μM 2 h, read-out: Mucin secretion as percent of control): 134%
activity at 0.5 µM ([1]; Homo sapiens, NHBE, inhibitor 500 nM, 15 min preincubation, then UTP 100 μM 2 h, read-out: Mucin secretion as percent of control): 124%

C=C1[C@@H](O)[C@@H]2O[C@]3(CC[C@H](/C=C/[C@@H](C)[C@@H]4CC(C)=C[C@@]5(O[C@H](C[C@@](C)(O)C(=O)O)CC[C@H]5O)O4)O3)CC[C@H]2O[C@@H]1[C@@H](O)C[C@H](C)[C@H]1O[C@@]2(CCCCO2)CC[C@H]1C [okadaic acid]
activity at 0.5 µM ([1]; Homo sapiens, NHBE, read-out: Mucin secretion as percent of control, inhibitor 500 nM, 15 min preincubation, then UTP 100 μM 2 h): 112%
Mucin secretion as percent of control ([1]; inhibitor 500 nM, 15 min preincubation, then UTP 100 μM 2 h): 110%
Reduction in mucin secretion level from UTP-stimulated level ([1]; inhibitor 500 nM, UTP 0.1 mM 2 h): 31%

TNF-α
Mucin secretion level, % of control ([1]; TNF-α 10 ng/ml 4 h, then UTP 0.1 mM 2 h): 191%
